Drawing on US11814367B2, “Inhibitors of glycogen synthase 1 (GYS1) and methods of use thereof” (Maze Therapeutics, Inc., priority 2021, dated 2023), this text covers IC50 for 19 molecules.

Some results are limits rather than exact numbers.

For test [1], the target named is hGYS1 enzyme (recombinant hGYS1/GN1 protein) (Homo sapiens (Human), UniProt P13807). As to the kind of experiment: GYS1 coupled enzyme assay (PK/LDH). In kind it is biochemical. The settings on record: hGYS1/GN1 50 nM, UDP-Glucose 0.8 mM, G6P 1 mM; geometric mean of at least 2 runs.
Sequence of hGYS1 enzyme (recombinant hGYS1/GN1 protein) (P13807 whole entry): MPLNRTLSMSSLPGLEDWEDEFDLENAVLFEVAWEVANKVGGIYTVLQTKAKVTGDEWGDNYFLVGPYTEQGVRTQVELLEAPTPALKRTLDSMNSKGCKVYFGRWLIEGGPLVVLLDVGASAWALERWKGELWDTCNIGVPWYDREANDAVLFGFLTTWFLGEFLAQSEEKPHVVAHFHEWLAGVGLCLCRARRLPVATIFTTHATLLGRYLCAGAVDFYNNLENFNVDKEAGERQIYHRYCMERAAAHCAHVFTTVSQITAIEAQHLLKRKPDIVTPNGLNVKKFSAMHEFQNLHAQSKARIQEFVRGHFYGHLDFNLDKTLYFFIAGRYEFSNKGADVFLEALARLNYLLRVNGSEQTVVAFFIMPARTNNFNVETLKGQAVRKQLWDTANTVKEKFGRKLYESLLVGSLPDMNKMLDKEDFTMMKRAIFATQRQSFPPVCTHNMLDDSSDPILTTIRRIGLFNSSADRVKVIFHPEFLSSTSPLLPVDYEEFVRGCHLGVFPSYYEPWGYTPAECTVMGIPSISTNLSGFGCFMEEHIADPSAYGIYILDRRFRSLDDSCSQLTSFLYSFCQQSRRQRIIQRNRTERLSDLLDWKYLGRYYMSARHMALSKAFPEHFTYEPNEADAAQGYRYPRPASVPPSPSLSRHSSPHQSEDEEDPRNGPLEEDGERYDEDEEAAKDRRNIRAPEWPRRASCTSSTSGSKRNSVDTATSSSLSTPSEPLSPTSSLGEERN
Sequence of hGYS1 enzyme (recombinant hGYS1/GN1 protein) (P46976 whole entry partner): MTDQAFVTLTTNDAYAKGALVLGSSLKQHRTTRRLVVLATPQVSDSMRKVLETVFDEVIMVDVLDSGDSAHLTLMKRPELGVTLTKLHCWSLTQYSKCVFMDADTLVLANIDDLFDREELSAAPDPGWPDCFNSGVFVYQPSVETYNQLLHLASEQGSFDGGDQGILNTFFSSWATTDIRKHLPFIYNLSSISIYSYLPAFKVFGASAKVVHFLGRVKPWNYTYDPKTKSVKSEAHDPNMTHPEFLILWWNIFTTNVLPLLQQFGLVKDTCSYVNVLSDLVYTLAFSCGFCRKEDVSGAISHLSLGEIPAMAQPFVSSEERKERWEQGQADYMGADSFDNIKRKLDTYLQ
For test [2], the target named is hGYS2 enzyme (recombinant hGYS2/GN1 protein) (Homo sapiens (Human), UniProt P54840). As to the kind of experiment: GYS2 coupled enzyme assay (PK/LDH). In kind it is biochemical. The settings on record: geometric mean of at least 2 assay runs on separate days, read-out: Avg_IC50. An outline of the steps:
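Continuous PK/LDH-coupled readout of NADH loss at 340 nm over 10 min, with 200 nM hGYS2/GN1 and 2 mM each of UDP-glucose, glucose-6-phosphate and PEP, in 50 mM Tris pH 7.5 with 0.2% glycogen and 2.5% DMSO. Slopes were normalized to controls and IC50s fit to a Hill curve from duplicates.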

The test system of test [3] is hGYS1 enzyme / glycogen synthesis in HeLa cells. As to the kind of experiment: GYS1 cell based assay (glycogen synthesis, Glucose-glo). More on the design: species or system human. As to conditions: 24 h incubation, 20 mM glucose, geometric mean of at least 2 runs. An outline of the steps:
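HeLa cells starved 24 h in medium containing only 1× Glutamax were plated onto compound in medium with 20 mM glucose (1% DMSO final) for 24 h, 37 °C, 5% CO2. Acid lysates were Tris-quenched, glucoamylase-digested (pH 5.3, 1 h, 37 °C) and read by Glucose-glo luminescence. IC50 came from Hill fits, as geometric mean of ≥2 runs.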

Sequence of hGYS2 enzyme (recombinant hGYS2/GN1 protein) (P54840 whole entry): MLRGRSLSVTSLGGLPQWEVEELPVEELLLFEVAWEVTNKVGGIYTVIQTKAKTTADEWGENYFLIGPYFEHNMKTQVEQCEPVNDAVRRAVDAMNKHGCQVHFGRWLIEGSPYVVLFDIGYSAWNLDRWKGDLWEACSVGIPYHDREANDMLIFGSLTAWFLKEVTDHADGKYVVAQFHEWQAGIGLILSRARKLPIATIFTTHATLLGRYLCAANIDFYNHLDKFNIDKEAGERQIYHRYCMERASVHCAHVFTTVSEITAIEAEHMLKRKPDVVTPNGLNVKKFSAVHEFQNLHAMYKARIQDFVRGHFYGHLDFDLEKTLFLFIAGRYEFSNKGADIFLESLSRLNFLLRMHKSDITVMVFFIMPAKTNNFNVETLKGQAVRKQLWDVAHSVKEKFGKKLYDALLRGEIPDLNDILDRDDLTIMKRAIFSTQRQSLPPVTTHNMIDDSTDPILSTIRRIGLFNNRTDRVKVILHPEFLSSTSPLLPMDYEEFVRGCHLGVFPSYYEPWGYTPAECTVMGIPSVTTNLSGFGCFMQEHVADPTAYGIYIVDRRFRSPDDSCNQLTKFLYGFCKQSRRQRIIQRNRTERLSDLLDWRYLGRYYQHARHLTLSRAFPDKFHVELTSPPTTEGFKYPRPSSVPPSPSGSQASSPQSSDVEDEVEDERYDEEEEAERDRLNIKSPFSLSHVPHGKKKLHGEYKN
Sequence of hGYS2 enzyme (recombinant hGYS2/GN1 protein) (P46976 whole entry partner): as the sequence (P46976 whole entry partner) above

For `CC(C)c1ccc([C@@H](NC(=O)[C@@H]2C[C@@H](F)CN2C(=O)Cn2cnnn2)c2ccccc2)nc1` [Compound 252, (2S,4R)-4-fluoro-N-[(S)-phenyl[5-(propan-2-yl)pyridin-2-yl]methyl}-1-[2-(1H-1,2,3-tetrazol-1-yl)acetyl]pyrrolidine-2-carboxamide], the IC50 in test [1] was 186 nM; in test [2] it was greater than 100000 nM; in test [3] (Homo sapiens, HeLa, 24 h), 2480 nM.
For `CC(C)c1ccc([C@@H](NC(=O)[C@@H]2C[C@@H](F)CN2C(=O)CN2CCOCC2=O)c2ccccc2)cc1` [Compound 219, (2S,4R)-4-fluoro-1-[2-(3-oxomorpholin-4-yl)acethyl]-N-[(S)-phenyl[4-(propan-2-yl)phenyl]methyl]pyrrolidine-2-carboxamide], the IC50 in test [1] was 101 nM; in test [2] it was greater than 100000 nM; in test [3] (Homo sapiens, HeLa, 24 h), 1410 nM.
Taken in the same sequence, the figures for `CC(C)c1ccc([C@@H](NC(=O)[C@@H]2C[C@@H](F)CN2C(=O)Cn2ccc(C(F)F)n2)c2ccccc2)nc1F` [Compound 789, (2S,4R)-1-{2-[3-(difluoromethyl)-1H-pyrazol-1-yl]acetyl}-4-fluoro-N-[(S)-[6-fluoro-5-(propan-2-yl)pyridin-2-yl](phenyl)methyl] pyrrolidine-2-carboxamide] were 10 nM, greater than 100000 nM and 280 nM.
Take `CC(C)(C)OC(=O)NCc1nnc(CC(=O)N2C[C@H](F)C[C@H]2C(=O)N[C@@H](c2ccccc2)c2ccc(C3CC3)c(F)c2)o1` [Compound 485, tert-butyl N-[(5-{2-[(2S,4R)-2-{[(S)-(4-cyclopropyl-3-fluorophenyl)(phenyl)methyl]carbamoyl}-4-fluoropyrrolidin-1-yl]-2-oxoethyl}-1,3,4-oxadiazol-2-yl)methyl]carbamate]: the IC50 was 210 nM in test [1]; greater than 100000 nM in test [2]; 3720 nM in test [3] (Homo sapiens, HeLa, 24 h).
Taken in the same sequence, the figures for `CC(C)c1ccc([C@@H](NC(=O)[C@@H]2C[C@@H](F)CN2C(=O)Cn2ccc(C(F)(F)F)n2)c2ccccc2)nc1F` [Compound 790, (2S,4R)-4-fluoro-N-[(S)-[6-fluoro-5-(propan-2-yl)pyridin-2-yl](phenyl)methyl]-1-{2-[3-(trifluoromethyl)-1H-pyrazol-1-yl]acetyl} pyrrolidine-2-carboxamide] were 8 nM, greater than 100000 nM and 250 nM.
`CC(C)c1ccc([C@@H](NC(=O)[C@@H]2C[C@@H](F)CN2C(=O)Cn2ccnc2)c2ccccc2)cc1F` [Compound 380, (2S,4R)-4-fluoro-N-[(S)-[3-fluoro-4-(propan-2-yl)phenyl](phenyl)methyl]-1-[2-(1H-imidazol-1-yl)acetyl]pyrrolidine-2-carboxamide]: the IC50 in test [1] was 47 nM; in test [2], greater than 100000 nM; in test [3] (Homo sapiens, HeLa, 24 h), 450 nM.
For the molecule `CC1(c2ccc([C@@H](NC(=O)[C@@H]3C[C@@H](F)CN3C(=O)CNC(=O)N3CCOCC3)c3ccccc3)nc2F)CC1` [Compound 589, N-{2-[(2S,4R)-4-fluoro-2-{[(S)-[6-fluoro-5-(1-methylcyclopropyl)pyridin-2-yl](phenyl)methyl]carbamoyl}pyrrolidin-1-yl]-2-oxoethyl} morpholine-4-carboxamide], the IC50 in test [1] was 101 nM; in test [2], greater than 100000 nM; in test [3] (Homo sapiens, HeLa, 24 h) it was 1420 nM.
The like results for `CC(C)c1ccc([C@@H](NC(=O)[C@@H]2C[C@@H](F)CN2C(=O)Cc2nncn2C)c2ccccc2)cc1` (stereo in doubt) [Compound 227, (2RS,4R)-4-fluoro-1-[2-(4-methyl-4H-1,2,4-triazol-3-yl)acetyl]-N-[(S)-phenyl[4-(propan-2-yl)phenyl]methyl]pyrrolidine-2-carboxamide] were, in that order, 76 nM, greater than 100000 nM and 1310 nM.
The like results for `CCn1ncc(N(C)CC(=O)N2C[C@H](F)C[C@H]2C(=O)N[C@@H](c2ccccc2)c2ccc(C3CC3)c(F)c2)n1` [Compound 474, (2S,4R)-N-[(S)-(4-cyclopropyl-3-fluorophenyl)(phenyl)methyl]-1-{2-[(2-ethyl-2H-1,2,3-triazol-4-yl)(methyl)amino]acetyl}-4-fluoropyrrolidine-2-carboxamide] were, in that order, 43 nM, greater than 100000 nM and 880 nM.
The like results for `Cc1coc(CC(=O)N2C[C@H](F)C[C@H]2C(=O)N[C@@H](c2ccccc2)c2ccc(C3CC(F)(F)C3)cn2)n1` [Compound 540, (2S,4R)-N-[(S)-[5-(3,3-difluorocyclobutyl)pyridin-2-yl] (phenyl)methyl]-4-fluoro-1-[2-(4-methyl-1,3-oxazol-2-yl)acetyl] pyrrolidine-2-carboxamide] were, in that order, 47 nM, greater than 100000 nM and 590 nM.
Regarding `CCn1cc(CC(=O)N2C[C@H](F)C[C@H]2C(=O)N[C@@H](c2ccccc2)c2ccc(C3CC3)c(F)n2)ccc1=O` [Compound 736, (2S,4R)-N-[(S)-(5-cyclopropyl-6-fluoropyridin-2-yl)(phenyl)methyl]-1-[2-(1-ethyl-6-oxo-1,6-dihydropyridin-3-yl)acetyl]-4-fluoropyrrolidine-2-carboxamide], the IC50 in test [1] is 20 nM; in test [2] it was greater than 100000 nM; in test [3] (Homo sapiens, HeLa, 24 h) it was 780 nM.
Turning to `O=C(N[C@@H](c1ccccc1)c1ccc(C2CC(F)(F)C2)c(F)c1)[C@@H]1C[C@@H](F)CN1C(=O)CNC(=O)N1CCC1` [Compound 544, (2S,4R)-1-((azetidine-1-carbonyl)glycyl)-N—((S)-(4-(3,3-difluorocyclobutyl)-3-fluorophenyl)(phenyl)methyl)-4-fluoropyrrolidine-2-carboxamide], the IC50 in test [1] was 11 nM; in test [2] it was greater than 100000 nM; in test [3] (Homo sapiens, HeLa, 24 h) it was 260 nM.
Taken in the same sequence, the figures for `CN1CCN(C(=O)NCC(=O)N2C[C@H](F)C[C@H]2C(=O)N[C@@H](c2ccccc2)c2ccc(C3CC3)c(F)c2)CC1` [Compound 486, N-{2-[(2S,4R)-2-{[(S)-(4-cyclopropyl-3-fluorophenyl)(phenyl)methyl]carbamoyl}-4-fluoropyrrolidin-1-yl]-2-oxoethyl}-4-methylpiperazine-1-carboxamide] were 41 nM, greater than 100000 nM and 1020 nM.
With `CCn1c(=O)c(C)cn(CC(=O)N2C[C@H](F)C[C@H]2C(=O)N[C@@H](c2ccccc2)c2ccc(C3CC(F)(F)C3)c(F)n2)c1=O` [Compound 501, (2S,4R)—N—((S)-(5-(3,3-difluorocyclobutyl)-6-fluoropyridin-2-yl)(phenyl)methyl)-1-(2-(3-ethyl-5-methyl-2,4-dioxo-3,4-dihydropyrimidin-1(2H)-yl)acetyl)-4-fluoropyrrolidine-2-carboxamide], the IC50 in test [1] was 3 nM; in test [2] it was greater than 100000 nM; in test [3] (Homo sapiens, HeLa, 24 h), 50 nM.
The like results for `CN1C(=O)C(CC(=O)N2C[C@H](F)C[C@H]2C(=O)N[C@@H](c2ccccc2)c2ccc(C3(C)CC3)c(F)n2)c2ccccc21` (stereo partly drawn) [Compound 597, (2S,4R)-4-fluoro-N-[(S)-[6-fluoro-5-(1-methylcyclopropyl)pyridin-2-yl](phenyl)methyl]-1-[2-(1-methyl-2-oxo-2,3-dihydro-1H-indol-3-yl)acetyl]pyrrolidine-2-carboxamide] were, in that order, 64 nM, greater than 100000 nM and 1320 nM.
For `O=C(N[C@@H](c1ccccc1)c1ccc(C2CC2)c(F)c1)[C@@H]1C[C@@H](F)CN1C(=O)Cc1cccn2c(=O)[nH]nc12` [Compound 482, (2S,4R)-N-[(S)-(4-cyclopropyl-3-fluorophenyl)(phenyl)methyl]-4-fluoro-1-(2-{3-oxo-2H,3H-[1,2,4]triazolo[4,3-a]pyridin-8-yl}acetyl) pyrrolidine-2-carboxamide], the IC50 is 68 nM in test [1]; greater than 100000 nM in test [2]; 1410 nM in test [3] (Homo sapiens, HeLa, 24 h).
`CC(C(=O)N1C[C@H](F)C[C@H]1C(=O)N[C@@H](c1ccccc1)c1ccc(C2CC2)c(F)c1)n1cnc2ccccc21` (single isomer, unassigned) [Compound 809, (2S,4R)-1-[(2S) or (2R)-2-(1H-1,3-benzodiazol-1-yl)propanoyl]-N-[(S)-(4-cyclopropyl-3-fluorophenyl)(phenyl)methyl]-4-fluoropyrrolidine-2-carboxamide]: the IC50 in test [1] is 7 nM; in test [2] it was greater than 100000 nM; in test [3] it was 190 nM.
In the case of `CC(C)c1ccc([C@@H](NC(=O)[C@@H]2C[C@@H](F)CN2C(=O)Cn2nccc2C(F)F)c2ccccc2)nc1F` [Compound 783, (2S,4R)-1-{2-[5-(difluoromethyl)-1H-pyrazol-1-yl]acetyl}-4-fluoro-N-[(S)-[6-fluoro-5-(propan-2-yl)pyridin-2-yl](phenyl)methyl] pyrrolidine-2-carboxamide], the IC50 in test [1] was 5 nM; in test [2] it was greater than 100000 nM; in test [3] (Homo sapiens, HeLa, 24 h), 80 nM.
The like results for `Cc1nccc(NCC(=O)N2C[C@H](F)C[C@H]2C(=O)N[C@@H](c2ccccc2)c2ccc(C3CC3)c(F)c2)n1` [Compound 472, (2S,4R)-N-[(S)-(4-cyclopropyl-3-fluorophenyl)(phenyl)methyl]-4-fluoro-1-{2-[(2-methylpyrimidin-4-yl)amino]acetyl} pyrrolidine-2-carboxamide] were, in that order, 22 nM, greater than 100000 nM and 540 nM.
